The results in this text go back to patent publication US20260250519A1, “Copper Containing Compounds and Compositions for Antimicrobial Paint and Coating” (ARXADA, LLC, priority 2022, published 2026).

Entries after “also recorded” stand apart in the source; their conditions may differ.

The nature of series [1]: Compatibility of copper compounds in flat wall paint, visual assessment of dry film for grits. The following applies: 600 ppm Cu in acrylic flat wall paint; dry film inspected for grits. In kind it is physicochemical. The protocol: The compatibilities of copper compounds in paint were evaluated via visual assessment of dry film appearance of a flat wall paint (50% PVC, 35% Solid Vol, 45 g/L VOC, Table 1).

Series [2] concerns Escherichia coli (ATCC 8739). The series can be described thus: Modified JIS Z2801 antibacterial efficacy in dry paint film (μBCC, ZnO). Type of series: cell-based. The following applies: ZnO 0 ppm in flat wall paint; for 2 hr Contact Time % ↓ / 2 hr Contact Time Log10 ↓: relative to blank paint. The procedure: (§1) In brief, μBCC dispersion and optional ZnO dispersion (25 wt %) were added into a flat wall paint (50% PVC, 35% Solid Vol, 45 g/L VOC, Table 1) for target Cu and ZnO level, respectively. The paints were brushed onto the sterilized plastic filter paper. Each side of the filter paper was painted twice and the resulting coated paper was dried at ambient condition for 3 days. The dried coatings were then leached against 10 L water for 24 hours (4 water changes for the first 8 hour). Each of three (3) bacterial inoculum (0.4 mL): Escherichia coli (ATCC 8739), Staphylococcus aureus (ATCC 6538), Pseudomonas aeruginosa (ATCC 15442) was used to inoculate the dry film (40 mm×40 mm) of test paint to achieve 1.0 to 4.0×10^5 cfm/mL of inoculum concentration per each bacteria on dry surface of each test paint. The test paints were incubated at 35±1° C. and 90% relative humidity (RH) for 2 hour. The degrees of bacterial contamination of all samples were determined relative to blank paint via viable cell count of bacteria by agar plate culture method.

In series [3] the test system is Pseudomonas aeruginosa (ATCC 15442). The series is described as above. In kind it is cell-based. The following applies: ZnO 0 ppm in flat wall paint; for 2 hr Contact Time % ↓ / 2 hr Contact Time Log10 ↓: relative to blank paint. The procedure: as §1
Series [4] relates to Staphylococcus aureus (ATCC 6538). The description is as above. In kind it is cell-based. The following applies: ZnO 0 ppm in flat wall paint; for 2 hr Contact Time % ↓ / 2 hr Contact Time Log10 ↓: relative to blank paint. The procedure:
as §1

Series [5] has as its system Pseudomonas aeruginosa (ATCC 15442). The series can be described thus: Interim EPA method for antimicrobial surface coatings, flat wall paint. In kind it is cell-based. The following applies: 1670 ppm in flat wall paint. The protocol:
(§2) The antibacterial efficacies of copper-containing composition in dry paint film were evaluated using an interim EPA method (Interim Method for Evaluating the Efficacy of Antimicrobial Surface Coatings: Oct. 2, 2020). In brief, μBCC dispersion was added into a flat wall paint (38% Solid Vol, <50 g/L VOC) for target Cu level. The paints were drawn-down onto the sterilized steel substrate (1 inch by 1 inch of AISI type 304 stainless steel). The resulting coated substrate was dried at ambient condition for at least 24 hours. Each of two (2) bacterial inoculum ([…]): Staphylococcus aureus (ATCC 6538) and Pseudomonas aeruginosa (ATCC 15442) was used to inoculate the dry film of test paint to achieve 10^4 to 10^5 cfm/carrier of each bacteria on dry surface of each test paint. The test paints were incubated at 22° C. and 30-40% RH for 2 hours. The degrees of bacterial contamination were determined via viable cell count for antibacterial efficacy relative to the uncoated substrate.

Series [6] relates to Staphylococcus aureus (ATCC 6538). The series is described as above. The following applies: Cu 1670 ppm in flat wall paint. In kind it is cell-based. The procedure: as §2
Series [7] concerns Aspergillus niger (ATCC 6275), Aureobasidium pullulans (ATCC 9348) and Penicillium citrinum (ATCC 9849). Put plainly: ASTM resistance to growth of mold on interior coatings in an environmental chamber. In kind it is cell-based. The following applies: for antifungal test pass/fail: Pass = rating 8-10 (Table 9); for Avg Rating: 4 weeks in chamber. The procedure:
Two coatings were brushed onto both faces and all edges of wood panel (allowing 1 day between coats). The resulting coated panels were dried at 23±2° C. and 50±5% relative humidity for 4 days. […] In the environmental chamber, the dried coated panels were hung vertically with the bottom approximately 3 inch above the surface of the inoculated soil and with sufficient spacing to allow free circulation of air and to prevent contact between panels or with wall surfaces. […] The degrees of fungal contamination were assessed using the rating scale in Table 9.

The mark [8] stands for this setting: no Cu additive, Quat level 2000 ppm.

For `O=C([O-])[O-].[Cu+2].[Cu+2].[OH-].[OH-]` [μBCC, Micronized basic copper carbonate], the “Compatibilities of Copper Compounds in Paint” value in series [1] is recorded as “compatible; also recorded: Compatible (no grits)”. For the same compound, the “2 hr Contact Time Avg” value in series [2] (Cu 165 ppm) is reported as under 5.7E+01; in series [2] (Cu 330 ppm) it was under 1.0E+01; in series [2] (Cu 824 ppm), under 4.0E+01; in series [2] (Cu 1650 ppm), under 1.0E+01; in series [3] (Cu 165 ppm), 1.2E+03; in series [3] (Cu 330 ppm), 1.3E+03. For the same compound, the “2 hr Contact Time Avg” value was under 4.7E+01 in series [3] (Cu 824 ppm); 2.7E+01 in series [3] (Cu 1650 ppm); 6.3E+01 in series [4] (Cu 165 ppm); under 2.0E+01 in series [4] (Cu 330 ppm); under 4.0E+01 in series [4] (Cu 824 ppm); under 1.0E+01 in series [4] (Cu 1650 ppm). For the same compound, the “2 hr Contact Time Avg” value is reported as 1.0E+00 in series [5] and 6.6E+01 in series [6]. The “2 hr Contact Time Log10” value was under 1.75 in series [2] (Cu 165 ppm); under 1.00 in series [2] (Cu 330 ppm); under 1.60 in series [2] (Cu 824 ppm); under 1.00 in series [2] (Cu 1650 ppm); 3.08 in series [3] (Cu 165 ppm); 3.13 in series [3] (Cu 330 ppm). Also, the “2 hr Contact Time Log10” value in series [3] (Cu 824 ppm) is under 1.67; in series [3] (Cu 1650 ppm), 1.43; in series [4] (Cu 165 ppm) it was 1.80; in series [4] (Cu 330 ppm) it was under 1.30; in series [4] (Cu 824 ppm), under 1.60; in series [4] (Cu 1650 ppm), under 1.00. Also, the “2 hr Contact Time Log10” value in series [5] is listed as 0.00; in series [6], 1.82. The “2 hr Contact Time % ↓” value in series [2] (Cu 165 ppm) is reported as at least 99.920%; in series [2] (Cu 330 ppm), at least 99.986%; in series [2] (Cu 824 ppm) it was at least 99.944%; in series [2] (Cu 1650 ppm), at least 99.986%; in series [3] (Cu 165 ppm), 93.632%; in series [3] (Cu 330 ppm), 92.912%. Besides, the “2 hr Contact Time % ↓” value in series [3] (Cu 824 ppm) is reported as at least 99.754%; in series [3] (Cu 1650 ppm) it was 99.860%; in series [4] (Cu 165 ppm), 99.936%; in series [4] (Cu 330 ppm), at least 99.980%; in series [4] (Cu 824 ppm), at least 99.960%; in series [4] (Cu 1650 ppm), at least 99.990%. Further, the “2 hr Contact Time % ↓” value in series [5] (relative to uncoated substrate) was 99.9964%; in series [6] (relative to uncoated substrate), 99.9287%. Moreover, the “2 hr Contact Time Log10 ↓” value was at least 3.10 in series [2] (Cu 165 ppm); at least 3.85 in series [2] (Cu 330 ppm); at least 3.25 in series [2] (Cu 824 ppm); at least 3.85 in series [2] (Cu 1650 ppm); 1.20 in series [3] (Cu 165 ppm); 1.15 in series [3] (Cu 330 ppm). Also, the “2 hr Contact Time Log10 ↓” value in series [3] (Cu 824 ppm) is at least 2.61; in series [3] (Cu 1650 ppm) it was 2.85; in series [4] (Cu 165 ppm) it was 3.20; in series [4] (Cu 330 ppm), at least 3.70; in series [4] (Cu 824 ppm) it was at least 3.40; in series [4] (Cu 1650 ppm), at least 4.00. For the same compound, the results for the “2 hr Contact Time Log10 ↓” value in series [5] (relative to uncoated substrate) and in series [6] (relative to uncoated substrate) were 4.45 and 3.15, respectively. Moreover, the figures for the antifungal test pass/fail result in series [7] (167 ppm Cu) and in series [7] (333 ppm Cu) were “fails” and “passes”, respectively. In addition, the “Avg Rating” value in series [7] (Cu level 167 ppm, no Quat) was 7.7; in series [7] (Cu level 333 ppm, no Quat) it was 9.3.

Take `CCCCCCCCCCCCN(C)C` [Lauryl Dimethyl Amine, reference compound]: in series [7] (setting [8]), the “Avg Rating” value is 2.7.

As to “N,N-Didecyl-N,N-dimethylammonium carbonate/bicarbonate [reference compound]”, the “Avg Rating” value in series [7] (setting [8]) was determined as 3.3.

For the compound `O=S(=O)([O-])[O-].[Cu+2]` [CuSO4, copper sulfate, reference compound], in series [1], the “Compatibilities of Copper Compounds in Paint” value is “Incompatible (many grits)”.
